Assay results reported in patent publication US9539273B2, “Targeted delivery of anti-fungal agents” (EDH Biotech Corp, priority 2013, dated 2017).

assay: Binding of stilbene derivatives to chitosan, dissociation constants by indirect difference spectroscopy; conditions: qualitative statement on binding affinity
From the text: Binding studies of stilbene derivatives to chitosan or MHEC

Compound	binding to chitosan (in words)
O=S(=O)(O)c1cc(Nc2nc(Nc3ccccc3)nc(N(CCO)CCO)n2)ccc1/C=C/c1ccc(Nc2nc(Nc3ccccc3)nc(N(CCO)CCO)n2)cc1S(=O)(=O)O [calcofluor white]	no significant improvement in binding
Nc1ccc(C=Cc2ccc(N)cc2S(=O)(=O)O)c(S(=O)(=O)O)c1 [4,4′-diaminostilbene-2,2′-disulfonic acid]	neither the core structure itself nor its bis(dichlorotriazine) derivative (R^4a═R^6a═R^4b═R^6b═Cl) binds to chitosan
O=S(=O)(O)c1cc(Nc2nc(NCCO)nc(Nc3ccccc3)n2)ccc1C=Cc1ccc(Nc2nc(NCCO)nc(Nc3ccccc3)n2)cc1S(=O)(=O)O [OB85]	no significant improvement in binding
